Where a name gives a salt, the structure may show the parent alone.
Tests used:
[1] = Dynamic moisture sorption (DMS) assessment; format: physicochemical; details: 25° C.
Protocol: Dynamic moisture sorption (DMS) measurements were performed for each crystalline form using a VTI atmospheric microbalance, SGA-100 system (VTI Corp., Hialeah, Fla. 33016). A weighed sample was used and the humidity was set at the ambient value at the start of the analysis. The DMS analysis consisted of a scan rate of 5% RH/step over the full humidity range of 5% RH to 90% RH. The DMS run was performed isothermally at 25° C.

[2] = Differential scanning calorimetry (thermal stability); format: physicochemical; details: heating ramp 10° C./min
Protocol: Differential scanning calorimetry (DSC) experiments were performed using a TA Instruments Model Q-100 module with a Thermal Analyst controller. Data were collected and analyzed using TA Instruments Universal Analysis software. A sample of each crystalline form was accurately weighed into a covered aluminum pan. After a 5 minute isothermal equilibration period at 5° C., the sample was heated using a linear heating ramp of 10° C./min from 0° C. to 200° C.

[3] = Solubility in buffers over 24 hours; format: physicochemical; details: pH>3, room temperature, FIG. 16
Protocol: Samples of the crystalline materials were evaluated over a 24 hour period at several pH ranges. The following buffer systems were used: • HCl buffer pH @ 1.15 • HCl buffer pH @ 1.94 • Potassium biphthate buffer pH @ 2.97 • Acetate buffer pH @ 4.17 • Acetate buffer pH @ 5.16 • Phosphate buffer pH @ 6.04 • Phosphate buffer pH @ 7.0
Samples (7-8 mg) of the crystalline materials were combined with 2 mL of each of the buffers in a 5 mL glass vial. The vials were then mounted onto an automatic rotator and rotate for 24 hours at room temperature. The resulting suspensions were filtered using a 0.45 μm filter (PVDF membrane) into a clean vial for HPLC analysis.

[4] = Thermal stability on storage, purity by HPLC; format: physicochemical; details: 40° C. (open container), 75% relative humidity, one month; for Purity Change: HPLC area percentage (% AUC)
Protocol: Weighed samples of the crystalline materials were stored at 40° C. (open container) and 75% relative humidity, for one month. The samples were then analyzed by the following HPLC method:
Column: Agilent Zorbox SB-C18, 4.6×250 mm, 5 μm (Part No. 880975-902). Mobile Phase A: 80% H2O, 20% MeCN, 0.01% TFA. Mobile Phase B: 80% MeCN, 20% H2O, 0.01% TFA. Flow rate: 1 mL/min. Injection Volume: 20 μL. Detector: 250 nm.
The purity of the samples was determined by HPLC area percentage (% AUC).

[5] = Reslurrying of hemiedisylate salt form I and form II; format: physicochemical; details: EtOH/MTBE with or without water, room temperature
Protocol: (§1) Hemiedisylate salt form II (50 mg, 80 μmol) and hemiedisylate salt form I (50 mg, 80 μmol) were combined with a premixed solution of EtOH (420 μL) and MTBE (1.6 mL, 13 mmol). The mixture was capped and stirred at room temperature. The resulting solids were filtered and washed with dioxane to yield a solid (86 mg), which was determined to be hemiedisylate salt form II.
as §1, with “mmol). Water (20 μL) was added and the” for “mmol). The”, “solid (67” for “solid (86”

AT1 receptor = biological target: T1, AT1 receptor (Homo sapiens, UniProt P30556); assay: AT1 receptor binding (inhibitory constant)
T1 sequence (P30556 1-359): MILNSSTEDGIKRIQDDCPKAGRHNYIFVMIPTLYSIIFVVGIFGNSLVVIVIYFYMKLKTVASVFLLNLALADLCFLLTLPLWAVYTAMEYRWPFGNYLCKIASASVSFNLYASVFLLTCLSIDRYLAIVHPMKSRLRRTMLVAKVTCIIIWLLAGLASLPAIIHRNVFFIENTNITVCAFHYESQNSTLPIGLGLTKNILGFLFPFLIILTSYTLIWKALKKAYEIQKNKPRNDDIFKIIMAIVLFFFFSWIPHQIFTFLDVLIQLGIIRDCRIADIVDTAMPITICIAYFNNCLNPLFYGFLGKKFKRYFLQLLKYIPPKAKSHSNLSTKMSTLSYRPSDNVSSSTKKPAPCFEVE

Row | weight gain, humidity range 5% RH up to 90% RH ([1]; 5% RH to 90% RH) | weight gain when exposed to up to 70% RH [1] | temperature below which no significant thermal decomposition is seen (DSC) [2] [°C] | solubility compared with the freebase [3] | Purity Change [4] [%] | Ki (AT1 receptor) [nM] | SMILES | thermal stability on storage [4] | relative stability of crystalline forms on reslurrying [5] | DMS moisture sorption/desorption behaviour ([1]; 5% RH to 90% RH)
1 | about 0.16% | less than 0.10% | ≥ 182 | more soluble than the freebase | −0.3 | – | CCOc1nc(CC)c(CNC(=O)[C@@H](S)CC(C)C)n1Cc1ccc(-c2ccccc2C(=O)O)cc1F [hemiedisylate form II, Crystalline Hemiedisylate Salt Form II of 4′-{2-Ethoxy-4-ethyl-5-[((S)-2-mercapto-4-methylpentanoylamino)methyl]imidazol-1-ylmethyl}-3′-fluorobiphenyl-2-carboxylic Acid] | more stable than the previously known freebase form | more stable than crystalline hemiedisylate salt form I | –
2 | – | – | ≥ 140 | – | – | – | CCOc1nc(CC)c(CNC(=O)[C@@H](S)CC(C)C)n1Cc1ccc(-c2ccccc2C(=O)O)cc1F [mono-oxalate salt, Crystalline Mono-oxalate Salt of 4′-{2-Ethoxy-4-ethyl-5-[((S)-2-mercapto-4-methylpentanoylamino)methyl]imidazol-1-ylmethyl}-3′-fluorobiphenyl-2-carboxylic Acid] | – | – | picks up moisture gradually from 5% RH to 90% RH, and loses the moisture during drying segment
3 | about 0.38% | less than 0.26% | ≥ 158 | – | – | – | CCOc1nc(CC)c(CNC(=O)[C@@H](S)CC(C)C)n1Cc1ccc(-c2ccccc2C(=O)O)cc1F [hemiedisylate salt form I, Crystalline Hemiedisylate Salt Form I of 4′-{2-Ethoxy-4-ethyl-5-[((S)-2-mercapto-4-methylpentanoylamino)methyl]imidazol-1-ylmethyl}-3′-fluorobiphenyl-2-carboxylic Acid] | – | – | –
4 | – | – | – | – | −2.9 | – | CCOc1nc(CC)c(CNC(=O)[C@@H](S)CC(C)C)n1Cc1ccc(-c2ccccc2C(=O)O)cc1F [freebase form, 4′-{2-ethoxy-4-ethyl-5-[((S)-2-mercapto-4-methylpentanoylamino)methyl]imidazol-1-ylmethyl}-3′-fluorobiphenyl-2-carboxylic acid, reference compound] | – | – | –
5 | about 0.97% | less than 0.68% | ≥ 181 | more soluble than the freebase | −0.1 | – | CCOc1nc(CC)c(CNC(=O)[C@@H](S)CC(C)C)n1Cc1ccc(-c2ccccc2C(=O)O)cc1F [heminapadisylate form, Crystalline Heminapadisylate Salt of 4′-{2-Ethoxy-4-ethyl-5-[((S)-2-mercapto-4-methylpentanoylamino)methyl]imidazol-1-ylmethyl}-3′-fluorobiphenyl-2-carboxylic Acid] | more stable than the previously known freebase form | – | –
6 | – | – | – | – | – | ≤ 100 | CCOc1nc(CC)c(CNC(=O)[C@@H](S)CC(C)C)n1Cc1ccc(-c2ccccc2C(=O)O)cc1F [compound of formula I, 4′-{2-ethoxy-4-ethyl-5-[((S)-2-mercapto-4-methylpentanoylamino)methyl]imidazol-1-ylmethyl}-3′-fluorobiphenyl-2-carboxylic acid] | – | – | –
